Ends that are not written are not given here.
How the values were obtained:
[1] = test system: gastric emptying; experiment: Gastric emptying in HSD rats (3H-3-O-methyl-glucose gavage); type: in vivo; conditions: for effect on gastric emptying: 40 minutes
Procedure: Male HSD rats, 180-215 g, were housed with a 12:12 hour light:dark cycle and fasted for 20 hrs (overnight). […] At t=1 min, a solution of 1 mL sterile water containing 5 μCi of ^3H-3-O-methyl-glucose was gavaged by oropharyngeal tube to conscious rats. Blood samples (10 μl) were collected 40 min after gavage and assayed for counts per minute (CPM) in plasma. To eliminate pain during tail vein sampling, 2% Lidocaine (0.1 ml) was injected 3-4 cm from the end of the tail (Gedulin, Jodka et al. Gastroenterology 108: […], 1995). Effects of the test compound were expressed as percent change relative to control, which was calculated as -100*(1-(mean value test rats/mean value controls)). Relative activity was defined as significant if p<0.05 as determined by ANOVA. Where a significant difference existed, test means were compared to the control mean using Dunnett's test (Prism v2.01, GraphPad Software Inc., San Diego, Calif.).

[2] = test system: food intake; experiment: Food intake in overnight-fasted NIH/SW mice; type: in vivo; conditions: for effect on food intake: 60 min
Procedure: Female NIH/Swiss mice (8-12 weeks old) were group housed with a 12:12 hour light:dark cycle with lights on at 0600. Water and a standard pelleted mouse chow diet were available ad libitum, except as noted. Animals were fasted and housed individually starting at approximately 1500 hrs, 1 day prior to experiment. The morning of the experiment (approx. 0630 hrs), all animals were weighed and divided into experimental groups so as to give the most similar weight distribution between groups. In a typical study, n=10 for the control group and at least 5 for each treatment group. At time=0 min, all animals were given an intraperitoneal injection of vehicle or compound in a volume of 5 ml/kg and immediately given a pre-weighed amount (10-15 g) of the standard chow. […] Significant treatment effects were identified by ANOVA (p<0.05). Where a significant difference existed, test means were compared to the control mean using Dunnett's test (Prism v2.01, GraphPad Software Inc., San Diego, Calif.).

[3] = given peripherally, dose not given

NPY[3-36]
effect on gastric emptying ([1]; 500 μg/kg intraperitoneal): inactive
effect on food intake ([2]; 100 μg/kg intraperitoneal): inactive

Neuropeptide Y [NPY]
effect on gastric emptying ([1]; 500 μg/kg intraperitoneal): inactive
effect on gastric emptying (summary) [1, 3]: completely inactive
effect on food intake ([2]; 100 μg/kg intraperitoneal): inactive
effect on food intake ([2]; 500 μg/kg intraperitoneal): trend toward activity
effect on food intake (summary) [2, 3]: modest decrease in food intake

Ac-PYY[22-36] (Ac-ASLRHYLNLVTRQRY; ends and bridges not checked; listed as Homo sapiens)
effect on gastric emptying ([1]; 200 μg/kg intraperitoneal): inactive
effect on food intake ([2]; 200 μg/kg intraperitoneal): inactive
